Entries after “also recorded” stand apart in the source; their conditions may differ.
Columns and labels:
[1] = test system: TET2; conditions: cited from earlier work
[2] = Liver toxicity after three weeks of once-a-week Bobcat339; format: in vivo, mouse
Procedure: For corticosterone, blood samples were obtained via retroorbital bleeding between 19:00 and 20:00. For alanine transaminase, aspartate transaminase and bilirubin, blood samples were collected by cardiac puncture of terminally anesthetized animals. All blood samples were collected in EDTA tubes (Microtainer with K2EDTA, BD, 365974). The tubes were centrifuged at 2,000×g at 4 °C for 20 min, and plasma was collected and stored at −80 °C until use. Plasma corticosterone levels were measured using Corticosterone ELISA kit (Enzo, ADI-900-097) according to the manufacturer's instructions. Kits used to measure alanine transaminase (EALT-100) and aspartate transaminase (EASTR-100) were purchased from Bioassay Systems. The bilirubin assay kit (MAK126) was purchased from Sigma Aldrich.

[3] = test system: high fat diet (HFD)-induced diabetic mice; assay: Feeding of HFD-induced diabetic mice; format: in vivo, mouse; conditions: drinking water, two weeks
Excerpt: It has previously been shown that TET3 expression is aberrantly elevated in the livers of humans and mice with type 2 diabetes and that liver-specific, siRNA-mediated TET3 knockdown improves glucose homeostasis both in dietary and genetic mouse models of diabetes (Li D. et al., 2020, Nature Communications, 11:342). Bobcat339 (4-Amino-1-[1,1′-biphenyl]-3-yl-5-chloro-2(1H)-pyrimidinone) is a synthetic cytosine derivative capable of binding competitively with 5mC to the active sites of [COMPOUND LEFT OUT] and inhibits their enzymatic activity in cultured neuronal cells (Chua G. N. L. et al., 2019, ACS Medicinal Chemistry Letters, 10:180-185). Although not bound by any particular theory, it was hypothesized that Bobcat339 has an anti-diabetic effect owing to its ability to inhibit [COMPOUND LEFT OUT]. Thus, the present studies employed high fat diet (HFD)-induced diabetic mice that were treated with Bobcat339 in drinking water for two weeks. […] Thus, nondiabetic mice fed on regular chow were treated with Bobcat339 in drinking water. Four days later, ARCs were isolated from ad libitum-fed mice and analyzed. […] In light of these observations, additional studies began to explore [COMPOUND LEFT OUT] in AgRP neurons for a potential role in the control of feeding and energy metabolism.

[4] = Tolerability of Bobcat339 in mice; format: in vivo, mouse; conditions: disease models in mice
[5] = test system: Tet3 and Agrp; assay: Tet3 and Agrp expression in leptin-treated GT1-7 cells; format: cell-based, mouse
Procedure: Mouse GT1-7 hypothalamic neuronal cell line (Sigma-Aldrich, SCC116), human SH-SY5Y neuronal blastoma cell line (ATCC, CRL-2266), and embryonic mouse hypothalamus cell line N11 (mHypoE-N11) (Cedarlane, CLU107) were purchased and cultured according to the manufacturers' instructions. For siRNA transfection in a 24-well plate scale, cells were seeded at a density of 2×10^5 cells/well the day before transfection. To prepare siRNA transfection solution for each well of cells, 5 pmol of NT siRNA (non-targeting control siRNA, AM4636, Ambion), Tet3 siRNA (siRNA specifically targeting mouse Tet3, 4390815/s101483, Ambion), or TET3 siRNA (siRNA specifically targeting human TET3, 4392420/s47238, Ambion) (Cao et al., 2019, Oncogene, 38:5356-5366; Xu et al., 2020, Cell Rep., 30:1310-1318) were mixed with 25 μl of OPTI-MEM (Gibco, 31985-070) by gentle pipetting (Cao, T. et al., 2019, Oncogene, 38:5356-5366; Xu, Y. et al., 2020, Cell Reports, 30:1310-1318 e5). In parallel, 1.5 μl of Lipofectamine RNAiMAX (Invitrogen, 13778-150) was mixed with 25 μl of OPTI-MEM by gentle pipetting. Following 5 min of incubation at room temperature, the resulting 50 μl of transfection solution was added to one well of cells containing 1 ml culture media. […]

| Molecule | inhibitory activity against TET2 ([1]; in the absence of contaminating copper (II)) | inhibition of enzymatic activity of TET2 ([1]; initially reported) | tolerability ([2]; 3-weeks of once-a-week i.p. injection) | liver toxicity ([2]; three weeks of once-a-week i.p. Bobcat339) | feeding [3] | side effects / toxicity [4] | Tet3 expression ([5]; leptin 1×10^−8 M vs. 1×10^−10 M) | Agrp expression in response to increased leptin ([5]; with TET3 knockdown) |
| --- | --- | --- | --- | --- | --- | --- | --- | --- |
| Nc1nc(=O)n(-c2cccc(-c3ccccc3)c2)cc1Cl [Bobcat339, 4-Amino-1-[1,1′-biphenyl]-3-yl-5-chloro-2(1H)-pyrimidinone] | negligible inhibitory activity | inhibit the enzymatic activity | well tolerated | no evidence of liver toxicity; also recorded: no liver toxicity has been detected | became hyperphagic | without discernible toxicity; also recorded: without discernible side effects; also recorded: no discernible toxicity | – | – |
| leptin: adipose hormone; mouse leptin L3772-1MG or human leptin L4146-1MG, Sigma Aldrich | – | – | – | – | – | – | a positive effect on Tet3 expression; also recorded: upregulated TET3 | no longer decreased in response to increased leptin |

From US20260355199A1, “COMPOSITIONS AND METHODS FOR TREATING OR PREVENTING NONALCOHOLIC STEATOHEPATITIS (NASH), ANOREXIA, DEPRESSION, ENDOMETRIOSIS, AND OTHER DISEASES OR DISORDERS” (priority 2022, published 2026)
